According to ChEMBL document CHEMBL3885861, “Open TG-GATES”:

Species: Rattus norvegicus
Experiment: Open TG-GATES - Regimen: Single
Type: toxicity, organism-based, Sprague-Dawley
Parameters: regimen Single, gender Male, age 6 weeks
Settings: in vivo, ip, 0.1 mg/kg, route intraperitoneal injection, dose 100 ug/Kg, dose level Middle; for APTT / Bas / Eos / Fbg / Hb / Ht / Lym / MCH / MCHC / MCV / Mono / Neu / PT / Plat / RBC / Ret / WBC: tissue Blood; for KIDNEY_L / KIDNEY_R / KIDNEY_TOTAL: tissue Kidney; for LIVER: tissue Liver; for A/G / ALP / ALT / AST / BUN / CRE / Ca / Cl / DBIL / GLC / IP / K / LDH / Na / PL / RALB / TBIL / TC / TG / TP / gamma-GTP: tissue Plasma

`CC(=O)N[C@H]1[C@@H](O[C@@H]2O[C@H](CC(O)[C@H]3O[C@@H](n4ccc(=O)[nH]c4=O)[C@H](O)[C@@H]3O)[C@H](O)[C@H](O)[C@H]2NC(=O)/C=C/CC(C)C)O[C@H](CO)[C@@H](N)[C@@H]1O` (some centres not stated) [TUNICAMYCIN] gave a TERMINAL_BW (3 h) of 221.2 g, an APTT (3 h) of 23.1 s and a Bas (3 h) of 0%. It also gave an Eos (3 h) of 0.6%, a Fbg (3 h) of 292.6 mg/dL and a Hb (3 h) of 12.8 g/dL. The Ht (3 h) was 39.3%, the Lym (3 h) was 71.2% and the MCH (3 h) was 20.2 pg. The MCHC (3 h) was 32.6%, the MCV (3 h) was 62 fL and the Mono (3 h) was 3.2%. For the same compound, the Neu (3 h) was 24.2%, the PT (3 h) was 15.9 s and the Plat (3 h) was 122.6 x10_4/uL. For the same compound, the RBC (3 h) was 636.4 x10_4/ul, the Ret (3 h) was 8.1% and the WBC (3 h) was 97.2 x10_2/uL. It also gave a KIDNEY_L (3 h) of 0.9 g, a KIDNEY_R (3 h) of 0.9 g and a KIDNEY_TOTAL (3 h) of 1.9 g. The LIVER (3 h) was 10.4 g, the A/G (3 h) was 1.2 and the ALP (3 h) was 1559 IU/L. It also gave an ALT (3 h) of 38.8 IU/L, an AST (3 h) of 76.8 IU/L and a BUN (3 h) of 13 mg/dL. For the same compound, the CRE (3 h) was 0.2 mg/dL, the Ca (3 h) was 10.6 mg/dL and the Cl (3 h) was 106.8 meq/L. The DBIL (3 h) was 0 mg/dL, the GLC (3 h) was 167.2 mg/dL and the IP (3 h) was 8.2 mg/dL. It also gave a K (3 h) of 4.2 meq/L, an LDH (3 h) of 158.2 IU/L and a Na (3 h) of 142.8 meq/L. It also gave a PL (3 h) of 122.8 mg/dL, an RALB (3 h) of 2.9 g/dL and a TBIL (3 h) of 0.012 mg/dL. For the same compound, the TC (3 h) was 70.4 mg/dL, the TG (3 h) was 70.2 mg/dL and the TP (3 h) was 5.3 g/dL. It also gave a gamma-GTP (3 h) of 1.4 IU/L, a TERMINAL_BW (6 h) of 216.8 g and an APTT (6 h) of 22.4 s. The Bas (6 h) was 0%, the Eos (6 h) was 0.4% and the Fbg (6 h) was 315.6 mg/dL. For the same compound, the Hb (6 h) was 13.2 g/dL, the Ht (6 h) was 40.1% and the Lym (6 h) was 67%. The MCH (6 h) was 21 pg, the MCHC (6 h) was 33% and the MCV (6 h) was 63.7 fL. It also gave a Mono (6 h) of 2%, a Neu (6 h) of 30% and a PT (6 h) of 15.7 s. The Plat (6 h) was 110 x10_4/uL, the RBC (6 h) was 630.4 x10_4/ul and the Ret (6 h) was 7.9%. The WBC (6 h) was 95.8 x10_2/uL, the KIDNEY_L (6 h) was 1 g and the KIDNEY_R (6 h) was 1 g. The KIDNEY_TOTAL (6 h) was 1.9 g, the LIVER (6 h) was 9.2 g and the A/G (6 h) was 1.2. It also gave an ALP (6 h) of 1277.4 IU/L, an ALT (6 h) of 39.8 IU/L and an AST (6 h) of 70.4 IU/L. The BUN (6 h) was 11 mg/dL, the CRE (6 h) was 0.2 mg/dL and the Ca (6 h) was 10.8 mg/dL. The Cl (6 h) was 106.2 meq/L, the DBIL (6 h) was 0 mg/dL and the GLC (6 h) was 175 mg/dL. It also gave an IP (6 h) of 9.3 mg/dL, a K (6 h) of 4.2 meq/L and an LDH (6 h) of 161.6 IU/L. For the same compound, the Na (6 h) was 141.4 meq/L, the PL (6 h) was 127.2 mg/dL and the RALB (6 h) was 3 g/dL. For the same compound, the TBIL (6 h) was 0.022 mg/dL, the TC (6 h) was 74 mg/dL and the TG (6 h) was 51.8 mg/dL. It also gave a TP (6 h) of 5.3 g/dL, a gamma-GTP (6 h) of 1.2 IU/L and a TERMINAL_BW (9 h) of 221.7 g. For the same compound, the APTT (9 h) was 23.2 s, the Bas (9 h) was 0% and the Eos (9 h) was 1%. For the same compound, the Fbg (9 h) was 305.8 mg/dL, the Hb (9 h) was 12.9 g/dL and the Ht (9 h) was 39.8%. For the same compound, the Lym (9 h) was 81%, the MCH (9 h) was 20.7 pg and the MCHC (9 h) was 32.4%. The MCV (9 h) was 64 fL, the Mono (9 h) was 2.2% and the Neu (9 h) was 15.4%. The PT (9 h) was 15.8 s, the Plat (9 h) was 123.1 x10_4/uL and the RBC (9 h) was 623 x10_4/ul. For the same compound, the Ret (9 h) was 7.8%, the WBC (9 h) was 86.6 x10_2/uL and the KIDNEY_L (9 h) was 0.9 g. It also gave a KIDNEY_R (9 h) of 1 g, a KIDNEY_TOTAL (9 h) of 1.9 g and an LIVER (9 h) of 9.2 g. For the same compound, the A/G (9 h) was 1.2, the ALP (9 h) was 1517.2 IU/L and the ALT (9 h) was 35.6 IU/L. The AST (9 h) was 71 IU/L, the BUN (9 h) was 12.4 mg/dL and the CRE (9 h) was 0.1 mg/dL. For the same compound, the Ca (9 h) was 10.9 mg/dL, the Cl (9 h) was 106.2 meq/L and the DBIL (9 h) was 0 mg/dL. It also gave a GLC (9 h) of 173.6 mg/dL, an IP (9 h) of 9.2 mg/dL and a K (9 h) of 4.2 meq/L. For the same compound, the LDH (9 h) was 137.4 IU/L, the Na (9 h) was 141.8 meq/L and the PL (9 h) was 124.8 mg/dL. The RALB (9 h) was 2.9 g/dL, the TBIL (9 h) was 0.014 mg/dL and the TC (9 h) was 70.2 mg/dL. The TG (9 h) was 76 mg/dL, the TP (9 h) was 5.3 g/dL and the gamma-GTP (9 h) was 1 IU/L. For the same compound, the TERMINAL_BW (24 h) was 228.5 g, the APTT (24 h) was 22.4 s and the Bas (24 h) was 0%. The Eos (24 h) was 0.8%, the Fbg (24 h) was 332.8 mg/dL and the Hb (24 h) was 13.3 g/dL. The Ht (24 h) was 41.4%, the Lym (24 h) was 80.6% and the MCH (24 h) was 19.9 pg. For the same compound, the MCHC (24 h) was 32%, the MCV (24 h) was 62 fL and the Mono (24 h) was 2.6%. For the same compound, the Neu (24 h) was 15.2%, the PT (24 h) was 15.8 s and the Plat (24 h) was 105.4 x10_4/uL. For the same compound, the RBC (24 h) was 668 x10_4/ul, the Ret (24 h) was 7.2% and the WBC (24 h) was 84.3 x10_2/uL. The KIDNEY_L (24 h) was 0.9 g, the KIDNEY_R (24 h) was 1 g and the KIDNEY_TOTAL (24 h) was 1.9 g. The LIVER (24 h) was 10.2 g, the A/G (24 h) was 1.2 and the ALP (24 h) was 1529.6 IU/L. For the same compound, the ALT (24 h) was 46.2 IU/L, the AST (24 h) was 74.2 IU/L and the BUN (24 h) was 15.2 mg/dL. The CRE (24 h) was 0.1 mg/dL, the Ca (24 h) was 10.5 mg/dL and the Cl (24 h) was 105.4 meq/L. For the same compound, the DBIL (24 h) was 0 mg/dL, the GLC (24 h) was 181 mg/dL and the IP (24 h) was 7.3 mg/dL. The K (24 h) was 4.2 meq/L, the LDH (24 h) was 152.8 IU/L and the Na (24 h) was 142 meq/L. The PL (24 h) was 143.8 mg/dL, the RALB (24 h) was 3.1 g/dL and the TBIL (24 h) was 0.014 mg/dL. For the same compound, the TC (24 h) was 77.6 mg/dL, the TG (24 h) was 78.2 mg/dL and the TP (24 h) was 5.6 g/dL. For the same compound, the gamma-GTP (24 h) was 1.4 IU/L.
